Reference: EPA's ToxRefDB 2

What was measured:
[1] = system: rat; conditions: Combined chronic toxicity/carcinogenicity; fischer; Oral; Feed; dose end: 104 week; group: systemic; systemic / pathology microscopic / adrenal gland / pheochromocytoma benign + systemic / pathology microscopic / adrenal gland / …
[2] = system: rat; conditions: Subchronic oral toxicity in rodents, fischer, Feed, dose end: 13 week, group: systemic
[3] = system: rat; conditions: Carcinogenicity; fischer; Oral; Feed; dose end: 105 week; group: systemic; systemic / in life observation / body weight / body weight + systemic / pathology microscopic / kidney / nephropathy + systemic / pathology …
[4] = system: mouse; conditions: Sub-acute repeat dose toxicity; b6c3f1; Oral; Feed; dose end: 14 day; group: systemic; systemic / in life observation / clinical signs / feces, discoloration
[5] = system: mouse; conditions: Combined chronic toxicity/carcinogenicity; b6c3f1; Oral; Feed; dose end: 104 week; group: systemic; systemic / pathology microscopic / blood / lymphoma malignant + systemic / pathology microscopic / ovary / interstitial stromal tumor + …
[6] = system: rat; conditions: Subchronic oral toxicity in rodents, fischer, Feed, dose end: 13 week, group: systemic; remark: listed apart in the source
[7] = system: rat; conditions: Sub-acute repeat dose toxicity; fischer; Oral; Feed; dose end: 14 day; group: systemic; systemic / in life observation / clinical signs / feces, discoloration + systemic / in life observation / food consumption / food …
[8] = system: mouse; conditions: Subchronic oral toxicity in rodents, b6c3f1, Feed, dose end: 13 week, group: systemic
[9] = system: mouse; conditions: Subchronic oral toxicity in rodents, b6c3f1, Feed, dose end: 13 week, group: systemic; remark: listed apart in the source
[10] = system: mouse; conditions: Carcinogenicity, b6c3f1, Oral, Feed, dose end: 105 week, group: systemic
[11] = system: dog; conditions: Chronic toxicity, beagle, Oral, Feed, dose end: 2 year, group: systemic
[12] = system: dog; conditions: Sub-acute repeat dose toxicity, beagle, Oral, Gavage/Intubation, dose end: 14 day, group: systemic
[13] = system: primate; conditions: Sub-acute repeat dose toxicity; Oral; Gavage/Intubation; dose end: 28 day; group: systemic; systemic / in life observation / clinical signs / defecation (diarrhea) + systemic / in life observation / food consumption / food …
[14] = system: rat; conditions: Sub-acute repeat dose toxicity, wistar, Oral, Gavage/Intubation, dose end: 28 day
[15] = systemic / clinical chemistry / bile acids / bile acids + systemic / in life observation / food consumption / food consumption + systemic / …
[16] = systemic / organ weight / liver / absolute + systemic / organ weight / liver / relative to body weight
[17] = systemic / organ weight / epididymis / absolute + systemic / organ weight / testes / absolute + systemic / organ weight / testes / relative …
[18] = systemic / organ weight / testes / absolute
[19] = systemic / organ weight / epididymis / nos + systemic / organ weight / liver / absolute + systemic / organ weight / testes / absolute + …
[20] = systemic / pathology microscopic / spleen / hematopoietic cell proliferation + systemic / pathology microscopic / testes / degeneration
[21] = systemic / pathology microscopic / spleen / hematopoietic cell proliferation + systemic / pathology microscopic / testes / degeneration + …
[22] = systemic / clinical chemistry / bilirubin / total bilirubin + systemic / hematology / anisocytosis / anisocytosis + systemic / hematology / …
[23] = systemic / clinical chemistry / glucose / glucose
[24] = systemic / in life observation / body weight / body weight + systemic / in life observation / clinical signs / salivation + systemic / in …
[25] = systemic / in life observation / body weight / body weight + systemic / pathology microscopic / kidney / vacuolization cytoplasmic + …
[26] = group: systemic, systemic / hematology / polychromasia / polychromasia + systemic / in life observation / body weight / body weight + systemic / in life …
[27] = group: systemic, systemic / pathology microscopic / ovary / degeneration

O=C1OC(c2ccc(O)cc2)(c2ccc(O)cc2)c2ccccc21 [Phenolphthalein]
LEL [1]: 500 mg/kg/day | LOAEL [1]: > 2000 mg/kg/day | NEL [1]: < 500 mg/kg/day | NOAEL [1]: ≥ 2000 mg/kg/day | LEL ([2]; systemic / clinical chemistry / bile acids / bile acids): 383 mg/kg/day | LOAEL [2, 15]: > 3490 mg/kg/day | NEL [2, 15]: 192 mg/kg/day | NOAEL [2, 15]: ≥ 3490 mg/kg/day | LEL [3]: 500 mg/kg/day | LOAEL [3]: 500 mg/kg/day | NEL [3]: < 500 mg/kg/day | NOAEL [3]: < 500 mg/kg/day | LEL [4]: 15000 mg/kg/day | LOAEL [4]: > 15000 mg/kg/day | NEL [4]: 7500 mg/kg/day | NOAEL [4]: ≥ 15000 mg/kg/day | LEL [5]: 300 mg/kg/day | LOAEL [5]: > 1200 mg/kg/day | NEL [5]: < 300 mg/kg/day | NOAEL [5]: ≥ 1200 mg/kg/day | LOAEL [6, 16]: > 3500 mg/kg/day | NEL [6, 16]: 400 mg/kg/day | NOAEL [6, 16]: ≥ 3500 mg/kg/day | LEL ([6]; systemic / organ weight / liver / relative to body weight): 800 mg/kg/day | LEL [7]: 10500 mg/kg/day | LOAEL [7]: > 10500 mg/kg/day | NEL [7]: 4500 mg/kg/day | NOAEL [7]: ≥ 10500 mg/kg/day | LOAEL [8, 17]: 2000 mg/kg/day | NOAEL [8, 17]: 1000 mg/kg/day | LEL [8, 18]: 500 mg/kg/day | NEL [8, 18]: < 500 mg/kg/day | LOAEL [9, 19]: > 9140 mg/kg/day | NOAEL [9, 19]: ≥ 9140 mg/kg/day | LEL [9, 18]: 509 mg/kg/day | NEL [9, 18]: < 509 mg/kg/day | LOAEL [10, 20]: 300 mg/kg/day | NOAEL [10, 20]: < 300 mg/kg/day | LEL [10, 21]: 300 mg/kg/day | NEL [10, 21]: < 300 mg/kg/day

CC(O)CO (configuration not stated) [1,2-Propylene glycol]
LOAEL [11, 22]: > 5000 mg/kg/day | NOAEL [11, 22]: ≥ 5000 mg/kg/day | LEL [11, 23]: 2000 mg/kg/day | NEL [11, 23]: < 2000 mg/kg/day

O=c1[nH]c2ccc(S(=O)CCN3CCC(Cc4ccc(F)cc4)CC3)cc2o1 (configuration not stated) [Besonprodil]
LEL [12, 24]: 30 mg/kg/day | NEL [12, 24]: < 30 mg/kg/day | LOAEL [12, 25]: > 300 mg/kg/day | NOAEL [12, 25]: ≥ 300 mg/kg/day | LEL [13]: 25 mg/kg/day | LOAEL [13]: > 500 mg/kg/day | NEL [13]: < 25 mg/kg/day | NOAEL [13]: ≥ 500 mg/kg/day | LEL ([14]; group: maternal, reproductive / reproductive performance / estrous cycle / absent corpora lutea): 200 mg/kg/day | LOAEL [14, 26]: > 300 mg/kg/day | NOAEL [14, 26]: ≥ 300 mg/kg/day | LEL [14, 27]: 25 mg/kg/day | NEL [14, 27]: < 25 mg/kg/day
